From patent US6831087B2, “Pyridine substituted isoquinoline derivatives” (Hoffmann-La Roche Inc., priority 2001, dated 2004) come the findings set out here.

For one data set, the target named is T1, NMDA-receptor subtype 2B (Rattus norvegicus, UniProt P35439+Q00960).
T1 construct: Membranes were prepared by homogenization of the whole brain minus cerebellum and medulla oblongata; from tissue; host or cells: rat whole brain minus cerebellum and medulla oblongata (membranes)
Description: 3H-Ro 25-6981 binding (displacement) on rat brain membranes. The conditions noted are these: displacement of 5 nM 3H-Ro 25-6981, rat whole brain minus cerebellum and medulla oblongata membranes, 2 hours at 4° C., pH 7.4. The method, then: ^3H-Ro 25-6981 binding (Ro 25-6981 is [R-(R*,S*)]-α-(4-hydroxy-phenyl)-β-methyl-4-(phenyl-methyl)-1-piperidine propanol)
Male Füllinsdorf albino rats weighing between 150-200 g were used. Membranes were prepared by homogenization of the whole brain minus cerebellum and medulla oblongata with a Polytron (10.000 rpm, 30 seconds), in 25 volumes of a cold Tris-HCl 50 mM, EDTA 10 mM, pH 7.1 buffer. The homogenate was centrifuged at 48,000 g for 10 minutes at 4° C. The pellet was resuspended using the Polytron in the same volume of buffer and the homogenate was incubated at 37° C. for 10 minutes. After centrifugation the pellet was homogenized in the same buffer and frozen at −80° C. for at least 16 hours but not more than 10 days. For the binding assay the homogenate was thawed at 37° C., centrifuged and the pellet was washed three times as above in a Tris-HCl 5 mM, pH 7.4 cold buffer. The final pellet was resuspended in the same buffer and used at a final concentration of […].
^3H-Ro 25-6981 binding experiments were performed using a Tris-HCl 50 mM, pH 7.4 buffer. For displacement experiments 5 nM of ^3H-Ro 25-6981 were used and non specific binding was measured using 10 mM of tetrahydroisoquinoline and usually it accounts for 10% of the total. The incubation time was 2 hours at 4° C. and the assay was stopped by filtration on Whatmann GF/B glass fiber filters (Unifilter-96, Packard, Zurich, Switzerland). The filters were washed 5 times with cold buffer. The radioactivity on the filter was counted on a Packard Top-count microplate scintillation counter after addition of […] of microscint 40 (Canberra Packard S. A., Züirich, Switzerland).
The above procedure was performed to determine data for calculation of an IC50 value. The IC50 value is a concentration expressed in micromoles (μM) for a test compound at which 50% of the ligand (in this determination, ^3H-Ro 25-6981) bonded to the receptor is displaced. The binding ability of the compounds of the invention was measured in vitro using a minimum of 10 concentrations and repeated at least once. The specific binding at each concentration was then calculated as the % of the maximum specific binding (100%) obtained in the same experiment, in the absence of a test compound. Competitive displacement of ^3H-Ro 25-6981 was observed, with complete displacement of the radioligand from specific binding sites (usually about 0% of specific binding at the highest concentrations tested). An IC50 value was then calculated with all the ten datapoints (% of specific bound) by plotting the data on a semilogarithmic scale with a sigmoidal fit (Log of the molar concentration on X-axis vs. % of specific bound on the Y-axis) using Microsoft Excel fit software or Microcal Origin software. The pooled normalized values were analyzed using a non-linear regression calculation program which provide IC50 with their relative upper and lower 95% confidence limits.

Structures can show the parent of a compound that is named as a salt. Bounds are passed on as bounds.

T1 sequence (Q00960 27-1482, other chains not shown): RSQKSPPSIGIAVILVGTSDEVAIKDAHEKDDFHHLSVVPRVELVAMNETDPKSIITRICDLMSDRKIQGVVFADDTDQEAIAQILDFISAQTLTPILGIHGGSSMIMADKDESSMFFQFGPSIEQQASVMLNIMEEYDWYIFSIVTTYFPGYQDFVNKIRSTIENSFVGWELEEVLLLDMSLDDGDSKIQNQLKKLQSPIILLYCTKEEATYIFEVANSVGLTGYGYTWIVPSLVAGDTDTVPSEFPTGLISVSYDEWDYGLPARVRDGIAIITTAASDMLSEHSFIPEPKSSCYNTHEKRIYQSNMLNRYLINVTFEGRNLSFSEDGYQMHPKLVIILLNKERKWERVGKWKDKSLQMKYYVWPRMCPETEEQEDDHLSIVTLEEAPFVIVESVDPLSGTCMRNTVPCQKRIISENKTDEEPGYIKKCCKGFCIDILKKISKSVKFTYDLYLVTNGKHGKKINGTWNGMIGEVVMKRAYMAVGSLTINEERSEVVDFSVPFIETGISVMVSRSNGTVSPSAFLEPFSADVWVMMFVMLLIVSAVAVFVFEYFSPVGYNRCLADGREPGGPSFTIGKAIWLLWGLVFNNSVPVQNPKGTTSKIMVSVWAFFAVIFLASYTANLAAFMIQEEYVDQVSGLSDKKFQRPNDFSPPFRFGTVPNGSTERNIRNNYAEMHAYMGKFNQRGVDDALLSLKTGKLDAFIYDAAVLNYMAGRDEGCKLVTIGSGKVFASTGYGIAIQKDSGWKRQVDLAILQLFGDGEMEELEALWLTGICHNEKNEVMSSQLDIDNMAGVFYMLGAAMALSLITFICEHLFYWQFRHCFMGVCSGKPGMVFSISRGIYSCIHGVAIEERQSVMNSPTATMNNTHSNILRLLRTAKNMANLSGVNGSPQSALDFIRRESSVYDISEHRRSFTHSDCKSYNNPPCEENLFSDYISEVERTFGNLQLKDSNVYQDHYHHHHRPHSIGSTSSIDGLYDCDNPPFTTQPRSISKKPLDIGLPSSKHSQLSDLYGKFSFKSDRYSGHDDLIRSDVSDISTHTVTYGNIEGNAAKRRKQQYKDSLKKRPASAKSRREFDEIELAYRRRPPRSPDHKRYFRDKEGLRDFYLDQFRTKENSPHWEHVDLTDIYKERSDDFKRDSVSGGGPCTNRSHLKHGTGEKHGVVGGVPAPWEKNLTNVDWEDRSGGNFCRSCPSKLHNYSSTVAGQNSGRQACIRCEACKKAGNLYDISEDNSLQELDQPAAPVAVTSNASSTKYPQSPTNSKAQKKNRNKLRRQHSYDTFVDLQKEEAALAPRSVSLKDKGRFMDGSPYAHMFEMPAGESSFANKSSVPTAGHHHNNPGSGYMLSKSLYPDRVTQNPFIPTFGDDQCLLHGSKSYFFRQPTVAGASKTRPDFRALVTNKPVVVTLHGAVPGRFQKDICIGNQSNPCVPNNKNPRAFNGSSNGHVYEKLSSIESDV

One may read the melting point as the temperature, or range, at which the solid turns liquid. Consider `Clc1cccc2c1CCN(c1ccncc1)C2` (as salt: hydrochloride) [Example 25, 5-Chloro-2-pyridin-4-yl-1,2,3,4-tetrahydro-isoquinoline], for which the melting point lay within 258 to 259 °C.
As usually defined, the IC50 is the point on the concentration scale where inhibition reaches its midpoint. Read a low IC50 as greater potency in that assay. For `Cc1cc(N2CCc3ccccc3C2)cc(NCCO)n1` [Example 35, 2-[4-(3,4-Dihydro-1H-isoquinolin-2-yl)-6-methyl-pyridin-2-yl-amino]-ethanol], at NMDA-receptor subtype 2B, the half-inhibitory concentration (IC50) was 4 nM.
For `Nc1cc(N2CCc3ccccc3C2)nc2c1CCCC2` (as salt: hydrochloride) [Example 7, 2-(3,4-Dihydro-1H-isoquinolin-2-yl)-5,6,7,8-tetrahydro-quinolin-4-yl-amine], the melting point lay in the range of 109 to 110 °C.
`Cc1cc(N)cc(N2CCc3ccccc3C2)n1` [Example 4, 2-(3,4-Dihydro-1H-isoquinolin-2-yl)-6-methyl-pyridin-4-yl-amine] registered a 50% inhibitory concentration (IC50) at NMDA-receptor subtype 2B of 14 nM. This lies in the double-digit nanomolar range.
The compound `CN1COCc2c1ccnc2N1CCc2ccccc2C1` (as salt: hydrochloride) [Example 14, 5-(3,4-Dihydro-1H-isoquinolin-2-yl)-1-methyl-1,4-dihydro-2H-pyrido[4,3-d][1,3]oxazine] displayed a melting point of 220 to 221 °C.
`CC1CN(c2ccncc2)Cc2ccccc21` (racemic) (as salt: hydrochloride) [Example 29, rac.-4-Methyl-2-pyridin-4-yl-1,2,3,4-tetrahydro-isoquinoline] came in with a melting point of 224 to 227 °C.
`CC1CN(c2cc(N)ccn2)Cc2ccccc21` (racemic) (as salt: fumarate) [Example 2, Rac.-2-(4-Methyl-3,4-dihydro-1H-isoquinolin-2-yl)-pyridin-4-yl-amine]: the melting point is 178 to 179 °C.
The compound `Cc1cc(N2CCc3ccccc3C2)ccn1` [Example 31, 2-(2-Methyl-pyridin-4-yl)-1,2,3,4-tetrahydro-isoquinoline] showed an IC50 at NMDA-receptor subtype 2B of 20 nM.
`NCc1cccc(N2CCc3ccccc3C2)n1` (as salt: hydrochloride) [Example 22, C-[6-(3,4-Dihydro-1H-isoquinolin-2-yl)-pyridin-2-yl]-methylamine]: the melting point was 192 to 195 °C.
Still for that read-out and setting: for `Clc1ccc2c(c1)CN(c1ccncc1)CC2` (as salt: hydrochloride) [Example 28, 7-Chloro-2-pyridin-4-yl-1,2,3,4-tetrahydro-isoquinoline] the value was 100 to 101 °C.
For the compound `Clc1ccc2c(c1)CCN(c1ccncc1)C2` (as salt: hydrochloride) [Example 27, 6-Chloro-2-pyridin-4-yl-1,2,3,4-tetrahydro-isoquinoline], the melting point was more than 250 °C.
Turning to `Nc1ccnc(N2CCc3ccccc3C2)c1` [Example 1, 2-(3,4-Dihydro-1H-isoquinolin-2-yl)-pyridin-4-yl-amine], the concentration for half-maximal inhibition (IC50) at NMDA-receptor subtype 2B came to 8 nM. That is a single-digit nanomolar value.
For the compound `Cc1cc(N2CCc3ccccc3C2)cc(NC(=O)CO)n1` [Example 34, N-[4-(3,4-Dihydro-1H-isoquinolin-2-yl)-6-methyl-pyridin-2-yl]-2-hydroxy-acetamide], the melting point lay within 160 to 162 °C.
As for `Cc1cnc(N2CCc3ccccc3C2)cc1N` [Example 3, 2-(3,4-Dihydro-1H-isoquinolin-2-yl)-5-methyl-pyridin-4-yl-amine], at NMDA-receptor subtype 2B, the IC50 turned out to be 11 nM.
Turning to `Cc1cc(N2CCc3ccccc3C2)cc(N)n1` (as salt: fumarate) [Example 32, 4-(3,4-Dihydro-1H-isoquinolin-2-yl)-6-methyl-pyridin-2-yl-amine], the melting point was more than 270 °C.
For `CCOC(=O)C(=O)Nc1cc(N2CCc3ccccc3C2)cc(C)n1` [Example 33, N-[4-(3,4-Dihydro-1H-isoquinolin-2-yl)-6-methyl-pyridin-2-yl]-oxalamic acid ethyl ester], at NMDA-receptor subtype 2B, the 50% inhibitory concentration (IC50) stood at 20 nM.
`Cc1cc(N2CCc3ccccc3C2)ccn1` (as salt: fumarate) [Example 31, 2-(2-Methyl-pyridin-4-yl)-1,2,3,4-tetrahydro-isoquinoline] showed a melting point of 155 to 156 °C.
In turn, `Cc1cc(N2CCc3ccccc3C2)cc(N)n1` [Example 32, 4-(3,4-Dihydro-1H-isoquinolin-2-yl)-6-methyl-pyridin-2-yl-amine] came in with an IC50 on NMDA-receptor subtype 2B of 11 nM.
Still for that read-out and setting: for `Nc1cc(CO)nc(N2CCc3ccccc3C2)c1` [Example 6, [4-Amino-6-(3,4-dihydro-1H-isoquinolin-2-yl)-pyridin-2-yl]-methanol] the value was 11 nM.
`Nc1cc(N2CCc3ccccc3C2)ccn1` [Example 30, 4-(3,4-Dihydro-1H-isoquinolin-2-yl)-pyridin-2-yl-amine] showed a melting point of 160 to 161 °C. In addition, the half-maximal inhibitory concentration (IC50) at NMDA-receptor subtype 2B is 4 nM.
In the case of `CCNc1ccnc(N2CCc3ccccc3C2)c1` (as salt: fumarate) [Example 16, [2-(3,4-Dihydro-1H-isoquinolin-2-yl)-pyridin-4-yl]-ethyl-amine], the melting point is 73 to 74 °C.
In the case of `Cc1cc(NCCO)cc(N2CCc3ccccc3C2)n1` [Example 10, 2-[2-(3,4-Dihydro-1H-isoquinolin-2-yl)-6-methyl-pyridin-4-yl-amino]-ethanol], at NMDA-receptor subtype 2B, the 50% inhibitory concentration (IC50) is 11 nM.
At NMDA-receptor subtype 2B, `OCCNc1ccnc(N2CCc3ccccc3C2)c1` [Example 9, 2-[2-(3,4-Dihydro-1H-isoquinolin-2-yl)-pyridin-4-yl-amino]-ethanol] registered an IC50 of 6 nM. This IC50 is about 1.8-fold lower than that of the compound before.
`Clc1cccc2c1CN(c1ccncc1)CC2` (as salt: fumarate) [Example 26, 8-Chloro-2-pyridin-4-yl-1,2,3,4-tetrahydro-isoquinoline] returned a melting point of 178 to 179 °C.
The compound `Cc1cc(N2CCc3ccccc3C2)cc(NCCO)n1` (as salt: fumarate) [Example 35, 2-[4-(3,4-Dihydro-1H-isoquinolin-2-yl)-6-methyl-pyridin-2-yl-amino]-ethanol] gave a melting point of 160 °C.
For the compound `CCOC(=O)C(=O)Nc1cc(N2CCc3ccccc3C2)cc(C)n1` (as salt: hydrochloride) [Example 33, N-[4-(3,4-Dihydro-1H-isoquinolin-2-yl)-6-methyl-pyridin-2-yl]-oxalamic acid ethyl ester], the melting point was > 160 °C (dec.).
As for `CCc1cc(N)cc(N2CCc3ccccc3C2)n1` [Example 5, 2-(3,4-Dihydro-1H-isoquinolin-2-yl)-6-ethyl-pyridin-4-yl-amine], at NMDA-receptor subtype 2B, the half-maximal inhibitory concentration (IC50) was 5.3 nM.
